Assay results from patent publication US20120214847A1, “2-[1-PHENYL-5-HYDROXY-4a-SUBSTITUTED-HEXAHYDROCYCLOPENTA[F]INDAZOL-5-YL]ETHYL PHENYL DERIVATIVES AS GLUCOCORTICOID RECEPTOR LIGANDS” (Merck Sharp & Dohme Corp., priority 2009, published 2012).

Target: T1, glucocorticoid receptor (Homo sapiens, UniProt P04150)
T1 construct: endogenous in cells; host or cells: HeLa (ATCC) cell lysate supernatant
T1 sequence (P04150 1-777): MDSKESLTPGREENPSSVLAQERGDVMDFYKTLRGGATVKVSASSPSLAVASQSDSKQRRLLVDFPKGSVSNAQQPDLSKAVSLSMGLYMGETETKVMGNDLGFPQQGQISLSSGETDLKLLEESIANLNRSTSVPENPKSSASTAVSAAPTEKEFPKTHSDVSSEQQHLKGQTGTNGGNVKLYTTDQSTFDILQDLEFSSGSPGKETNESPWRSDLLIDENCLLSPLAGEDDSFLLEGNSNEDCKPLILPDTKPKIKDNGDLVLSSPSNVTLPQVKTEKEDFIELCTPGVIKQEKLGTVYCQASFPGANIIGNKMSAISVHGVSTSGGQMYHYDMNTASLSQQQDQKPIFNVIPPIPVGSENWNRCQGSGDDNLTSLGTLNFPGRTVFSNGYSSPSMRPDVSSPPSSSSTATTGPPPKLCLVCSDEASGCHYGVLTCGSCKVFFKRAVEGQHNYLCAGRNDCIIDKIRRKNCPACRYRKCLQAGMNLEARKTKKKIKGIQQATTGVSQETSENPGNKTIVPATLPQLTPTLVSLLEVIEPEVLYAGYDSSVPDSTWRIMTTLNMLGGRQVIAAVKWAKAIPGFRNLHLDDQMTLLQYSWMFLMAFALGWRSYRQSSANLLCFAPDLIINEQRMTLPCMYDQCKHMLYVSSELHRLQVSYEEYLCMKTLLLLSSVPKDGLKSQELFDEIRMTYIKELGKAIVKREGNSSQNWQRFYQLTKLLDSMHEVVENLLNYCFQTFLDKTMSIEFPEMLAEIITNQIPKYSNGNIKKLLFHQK
Experiment: Ligand binding assay (GRBind), 3H-dexamethasone displacement in HeLa cell lysate
Conditions: 3H-DEX tracer
How it was run: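 Cytosolic supernatant from HeLa cells in TEGM buffer (pH 7.2, with molybdate) was incubated overnight at 4 °C with 3H-dexamethasone (6 nM trace solution) and serially diluted compound, with 2% ethanol. Bound receptor was captured on hydroxylapatite, filtered and counted by scintillation. IC50s were calculated using dexamethasone as reference.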

SMILES	Ki [nM]
CC(C)(CO)NC(=O)c1cc(F)cnc1CC[C@]1(O)CCC2=Cc3c(cnn3-c3ccc(F)cc3)C[C@@]21C1CC1 [Example 48, 2-{2-[(4aR,5R)-4a-Cyclopropyl-1-(4-fluorophenyl)-5-hydroxy-1,4,4a,5,6,7-hexahydrocyclopenta[f]indazol-5-yl]ethyl}-5-fluoro-N-(1-hydroxy-2-methylpropan-2-yl)pyridine-3-carboxamide]	3.55
CC[C@]12Cc3cnn(-c4ccccc4)c3C=C1CC[C@@]2(O)CCc1ccc(F)cc1C(N)=O [Example 6]	3.17
CC[C@]12Cc3cnn(-c4ccc(F)cc4)c3C=C1CC[C@@]2(O)CCc1ccc(F)cn1 [Example 19, (4aS,5R)-4a-Ethyl-1-(4-fluorophenyl)-5-[2-(5-fluoropyridin-2-yl)ethyl]-1,4,4a,5,6,7-hexahydrocyclopenta[f]indazol-5-ol]	2.52
CC[C@]12Cc3cnn(-c4cccc(F)c4)c3C=C1CC[C@@]2(O)CCc1ccccc1C(N)=O [Example 11, 2-{2-[(4aS,5R)-4a-Ethyl-1-(3-fluorophenyl)-5-hydroxy-1,4,4a,5,6,7-hexahydrocyclopenta[f]indazol-5-yl]ethyl}benzamide]	3.22
CC[C@]12Cc3cnn(-c4ccc(F)cc4)c3C=C1CC[C@@]2(O)CCc1ncccc1C(N)=O [Example 52, 2-{2-[(4aS,5R)-4a-Ethyl-1-(4-fluorophenyl)-5-hydroxy-1,4,4a,5,6,7-hexahydrocyclopenta[f]indazol-5-yl]ethyl}pyridine-3-carboxamide]	9.83
CC[C@]12Cc3cnn(-c4ccc(F)cc4)c3C=C1CC[C@@]2(O)CC(O)c1ccc(F)cn1 (single isomer, unassigned) [Example 69b]	2.91
CC[C@]12Cc3cnn(-c4ccc(F)cc4)c3C=C1CC[C@@]2(O)CC(O)c1cncc(F)c1 (stereo partly drawn) [Example 73, (4aS,5R)-4a-Ethyl-1-(4-fluorophenyl)-5-[2-(5-fluoropyridin-3-yl)-2-hydroxyethyl]-1,4,4a,5,6,7-hexahydrocyclopenta[f]indazol-5-ol]	5.67
CC[C@]12Cc3cnn(-c4ccccc4)c3C=C1CC[C@@]2(O)CCc1ccccc1C(N)=O [Example 20, 2-{2-[(4aS,5R)-4a-Ethyl-5-hydroxy-1-phenyl-1,4,4a,5,6,7-hexahydrocyclopenta[f]indazol-5-yl]ethyl}benzamide]	2.49
NC(=O)c1cccnc1CC[C@]1(O)CCC2=Cc3c(cnn3-c3ccc(F)cc3)C[C@@]21C1CC1 [Example 1, 2-{2-[(4aR,5R)-4a-Cyclopropyl-1-(4-fluorophenyl)-5-hydroxy-1,4,4a,5,6,7-hexahydrocyclopenta[f]indazol-5-yl]ethyl}pyridine-3-carboxamide]	4.51
CC[C@]12Cc3cnn(-c4ccc(F)cc4)c3C=C1CC[C@@]2(O)CCc1ncccc1S(=O)(=O)C(C)C [Example 62, (4aS,5R)-4a-Ethyl-1-(4-fluorophenyl)-5-{2-[3-(propan-2-ylsulfonyl)pyridin-2-yl]ethyl}-1,4,4a,5,6,7-hexahydrocyclopenta[f]indazol-5-ol]	4.06
CC[C@]12Cc3cnn(-c4ccc(F)cc4)c3C=C1CC[C@@]2(O)CC(O)c1ccc(F)cn1 (single isomer, unassigned) [Example 69a]	4.41
CC[C@]12Cc3cnn(-c4ccc(F)cc4)c3C=C1CC[C@@]2(O)CCc1ccccc1S(=O)(=O)C(C)C [Example 40, (4aS,5R)-4a-Ethyl-1-(4-fluorophenyl)-5-{2-[2-(propan-2-ylsulfonyl)phenyl]ethyl}-1,4,4a,5,6,7-hexahydrocyclopenta[f]indazol-5-ol]	2.45
COc1ccnc(CC[C@]2(O)CCC3=Cc4c(cnn4-c4ccc(F)cc4)C[C@@]32C2CC2)c1C(N)=O [Example 54, 2-{2-[(4aR,5R)-4a-Cyclopropyl-1-(4-fluorophenyl)-5-hydroxy-1,4,4a,5,6,7-hexahydrocyclopenta[f]indazol-5-yl]ethyl}-4-methoxypyridine-3-carboxamide]	2.44

The next compounds have a lower Ki than those just listed; values first:

Ki [nM]	SMILES
2.33	CC[C@]12Cc3cnn(-c4ccc(F)cc4)c3C=C1CC[C@@]2(O)CCc1cccc(F)c1CC(N)=O [Example 60, 2-(2-{2-[(4aS,5R)-4a-Ethyl-1-(4-fluorophenyl)-5-hydroxy-1,4,4a,5,6,7-hexahydrocyclopenta[f]indazol-5-yl]ethyl}-6-fluorophenyl)acetamide]
2.26	O[C@@]1(CCc2cc(C(F)(F)F)ccn2)CCC2=Cc3c(cnn3-c3ccc(F)cc3)C[C@@]21C1CC1 [Example 32, (4aR,5R)-4a-Cyclopropyl-1-(4-fluorophenyl)-5-{2-[4-(trifluoromethyl)pyridin-2-yl]ethyl}-1,4,4a,5,6,7-hexahydrocyclopenta[f]indazol-5-ol]
2.24	NC(=O)c1c(C(F)(F)F)ccnc1CC[C@]1(O)CCC2=Cc3c(cnn3-c3ccc(F)cc3)C[C@@]21C1CC1 [Example 55, 2-{2-[(4aR,5R)-4a-Cyclopropyl-1-(4-fluorophenyl)-5-hydroxy-1,4,4a,5,6,7-hexahydrocyclopenta[f]indaozol-5-yl]ethyl}-4-(trifluoromethyl)pyridine-3-carboxamide]
1.99	CC[C@]12Cc3cnn(-c4cccnc4)c3C=C1CC[C@@]2(O)CCc1ccc(F)cc1C#N [Example 9, 2-{2-[(4aS,5R)-4a-Ethyl-5-hydroxy-1-(pyridin-3-yl)-1,4,4a,5,6,7-hexahydrocyclopenta[f]indazol-5-yl]ethyl}-5-fluorobenzonitrile]
1.99	O=C(NC1(CO)CC1)c1ccccc1CC[C@]1(O)CCC2=Cc3c(cnn3-c3ccc(F)cc3)C[C@@]21C1CC1 [Example 46, 2-{2-[(4aR,5R)-4a-Cyclopropyl-1-(4-fluorophenyl)-5-hydroxy-1,4,4a,5,6,7-hexahydrocyclopenta[f]indazol-5-yl]ethyl}-N-[1-(hydroxymethyl)cyclopropyl]benzamide]
1.98	NC(=O)c1cc(F)ccc1CC[C@]1(O)CCC2=Cc3c(cnn3-c3ccc(F)cc3)C[C@@]21C1CC1 [Example 39, 2-{2-[(4aR,5R)-4a-Cyclopropyl-1-(4-fluorophenyl)-5-hydroxy-1,4,4a,5,6,7-hexahydrocyclopenta[f]indazol-5-yl]ethyl}-5-fluorobenzamide]
1.79	NC(=O)C(O)c1ccccc1CC[C@]1(O)CCC2=Cc3c(cnn3-c3ccc(F)cc3)C[C@@]21C1CC1 (single isomer, unassigned) [Example 3b]
1.73	CC[C@]12Cc3cnn(-c4ccc(F)cc4)c3C=C1CC[C@@]2(O)CCc1cc(F)ccn1 [Example 18, (4aS,5R)-4a-Ethyl-1-(4-fluorophenyl)-5-[2-(4-fluoropyridin-2-yl)ethyl]-1,4,4a,5,6,7-hexahydrocyclopenta[f]indazol-5-ol]
1.63	Cc1ccnc(CC[C@]2(O)CCC3=Cc4c(cnn4-c4ccc(F)cc4)C[C@@]32C2CC2)c1 [Example 36, (4aR,5R)-4a-Cyclopropyl-1-(4-fluorophenyl)-5-[2-(4-methylpyridin-2-yl)ethyl]-1,4,4a,5,6,7-hexahydrocyclopenta[f]indazol-5-ol]
1.28	CC[C@]12Cc3cnn(-c4ccccc4)c3C=C1CC[C@@]2(O)CCc1cccc(F)c1C#N [Example 15, 2-{2-[(4aS,5R)-4a-Ethyl-5-hydroxy-1-phenyl-1,4,4a,5,6,7-hexahydrocyclopenta[f]indazol-5-yl]ethyl}-6-fluorobenzonitrile]
1.25	COc1cccc(CC[C@]2(O)CCC3=Cc4c(cnn4-c4ccc(F)cc4)C[C@@]32C2CC2)c1C(N)=O [Example 38, 2-{2-[(4aR,5R)-4a-Cyclopropyl-1-(4-fluorophenyl)-5-hydroxy-1,4,4a,5,6,7-hexahydrocyclopenta[f]indazol-5-yl]ethyl}-6-methoxybenzamide]
1.04	CC[C@]12Cc3cnn(-c4ccc(F)cc4)c3C=C1CC[C@@]2(O)CCc1cncc(F)c1 [Example 21, (4aS,5R)-4a-Ethyl-1-(4-fluorophenyl)-5-[2-(5-fluoropyridin-3-yl)ethyl]-1,4,4a,5,6,7-hexahydrocyclopenta[f]indazol-5-ol]
